# Source: patent US10485814B2, “Nicotinamide riboside analogs and pharmaceutical compositions and uses thereof” (GlaxoSmithKline Intellectual Property (No. 2) Limited, priority 2014, dated 2019)
# Structures can show the parent of a compound that is named as a salt.
# Test system: not listed separately
# Assay: Gravimetric Vapor Sorption (GVS)
# Type: physicochemical
# Conditions: 90% RH, 25° C.
# Procedure: Gravimetric Vapor Sorption (GVS): Samples were analyzed using a VTI corporation (now part of TA Instruments) SGA-100 with Cahn microbalance equipped with quartz sample and reference pans. Samples were dried in the SGA-100 under dry nitrogen for 5 hours at 25° C. followed by a moisture absorption step ramp from 5% relative humidity (RH) to 95% or 90% RH followed by a desorption step ramp back to 5% or 10% RH (all steps at 25° C.). The samples were held at each % RH step for 4 hours.
row,Structure (SMILES),GVS weight gain from the dried state
1,"CCCCCC(=O)OC[C@H]1O[C@@H](N2C=CCC(C(N)=O)=C2)[C@H](O)[C@@H]1O [mono C6-NRH derivative, nicotinamide riboside hydride 5′-monohexanoate]",approximately 5%

# Test system: not listed separately
# Assay: Plasma hydrolysis of nicotinamide riboside analogs to NR (incubation with rat plasma, LC/MS/MS)
# Type: in vitro ADME
# Conditions: 10 mM, incubated 30 min at 37° C.
# Procedure: Compounds were diluted with rat plasma to a concentration of 10 millimolar (mM). Samples were incubated for 30 min at 37° C., taking 50 microL aliquots for analysis at 0 and 30 min. The aliquots were loaded onto a deep 96 well plate, then 350 microL of 0.1% (v:v) formic acid in acetonitrile was added to each well. The plate was covered and sealed to prevent evaporation, then it was placed on an orbital plate shaker set to 800-900 rps for 5-10 minutes. Next, the plate was centrifuged at around 3000 rpm for 5 min to provide a clear supernatant. For LC/MS/MS analysis, 200 microL of supernatant from each well was transferred onto a clean plate, which was subsequently capped and placed into an autosampler.
# LCMS Conditions. For each well, a 10 microL sample was injected via autosampler onto a Chromolithe Performance, RP-18e (100×4.6 mm) column, and eluted with a binary gradient. Solvent A=0.1% formic acid, 0.1% N,N-dibutyl-N-methylamine (DBME) in 2 mM aqueous ammonium acetate (1:1:1000 v:v:v). Solvent B=0.1% formic acid in acetonitrile (1:1000 v:v). The solvent gradient was as follows: 0-0.22 min, 95:5 A:B; […], 95:5 A:B to 30:70 A:B (linear gradient); 5.05-6.05 min, 30:70 A:B; 6.05-6.60 min, 30:70 A:B to 95:5 A:B (linear gradient); 6.60-7.15 min, 95:5 A:B; stop elution at 7.15 min. Nicotinamide riboside eluted at approximately 1.7 min. A triple-quadrupole mass spectrometer was employed for peak identification. The identity of the analyte was confirmed by MS observation of a Q1 peak at m/z=255 (M)^+, and a Q3 peak at m/z=123.1 (M-C5H8O4)^+.
# The results are shown in FIG. 3, with the release of free nicotinamide riboside measured using by HPLC-MS at 0, 30, and 60 minute time points (columns 5, 6, and 7 of table shown in FIG. 3). For each of NR esters in Table 3, except nicotinamide riboside tribenzoate, nicotinamide riboside was detected at the 30 minute time point.
row,Structure (SMILES),conversion to free nicotinamide riboside
1,"CCCCC(=O)OC[C@H]1O[C@@H]([n+]2cccc(C(N)=O)c2)[C@H](OC(=O)CCCC)[C@@H]1OC(=O)CCCC [1-((2R,3R,4R,5R)-3,4-bis(pentanoyloxy)-5-((pentanoyloxy)methyl)tetrahydrofuran-2-yl)-3-carbamoylpyridin-1-ium chloride]",converted to free nicotinamide riboside to a significant degree
2,"CCCCCCCCCCCC(=O)OC[C@H]1O[C@@H]([n+]2cccc(C(N)=O)c2)[C@H](O)[C@@H]1O.O=C([O-])C(F)(F)F [NR+ monododecanoate, nicotinamide riboside 5′-monododecanoate]",converted to free nicotinamide riboside to a significant degree
3,"CCCCCC(=O)OC[C@H]1O[C@@H]([n+]2cccc(C(N)=O)c2)[C@H](O)[C@@H]1O [NR+ monohexanoate, 3-carbamoyl-1-((2R,3R,4S,5R)-5-((hexanoyloxy)methyl)-3,4-dihydroxytetrahydrofuran-2-yl)pyridin-1-ium 2,2,2-trifluoroacetate]",converted to free nicotinamide riboside to a significant degree
4,"CCCCCCCCC(=O)OC[C@H]1O[C@@H]([n+]2cccc(C(N)=O)c2)[C@H](O)[C@@H]1O [NR+ monononanoate, 3-carbamoyl-1-((2R,3R,4S,5R)-3,4-dihydroxy-5-((nonanoyloxy)methyl)tetrahydrofuran-2-yl)pyridin-1-ium 2,2,2-trifluoroacetate]",converted to free nicotinamide riboside to a significant degree
5,"CCCCCCCC/C=C\CCCCCCCC(=O)OC[C@H]1O[C@@H]([n+]2cccc(C(N)=O)c2)[C@H](O)[C@@H]1O [NR+ monooleate, 3-carbamoyl-1-((2R,3R,4S,5R)-3,4-dihydroxy-5-((oleoyloxy)methyl)tetrahydrofuran-2-yl)pyridin-1-ium 2,2,2-trifluoroacetate]",converted to free nicotinamide riboside to a significant degree
6,"CCCCC(=O)OC[C@H]1O[C@@H]([n+]2cccc(C(N)=O)c2)[C@H](O)[C@@H]1O [NR+ monopentanoate, 3-carbamoyl-1-((2R,3R,4S,5R)-3,4-dihydroxy-5-((pentanoyloxy)methyl)tetrahydrofuran-2-yl)pyridin-1-ium 2,2,2-trifluoroacetate]",converted to free nicotinamide riboside to a significant degree
7,"CCCCCCCCCCC(=O)OC[C@H]1O[C@@H]([n+]2cccc(C(N)=O)c2)[C@H](O)[C@@H]1O [NR+ monoundecanoate, nicotinamide riboside 5′-monoundecanoate]",converted to free nicotinamide riboside to a significant degree
8,CCCCCC(=O)OCC1O[C@@H]([n+]2cccc(C(N)=O)c2)[C@H](OC(=O)CCCCC)[C@@H]1OC(=O)CCCCC (stereo partly shown) [NR+ trihexanoate TFA-],converted to free nicotinamide riboside to a significant degree
9,"CCCCCCCCCC(=O)OC[C@H]1O[C@@H](N2C=CCC(C(N)=O)=C2)[C@H](O)[C@@H]1O [NRH monodecanoate, nicotinamide riboside hydride 5′-monodecanoate]",converted to free nicotinamide riboside to a significant degree
10,"CCCCCCCCCCCCCC(=O)OC[C@H]1O[C@@H](N2C=CCC(C(N)=O)=C2)[C@H](O)[C@@H]1O [NRH monotetradecanoate, ((2R,3S,4R,5R)-5-(3-carbamoylpyridin-1 (4H)-yl)-3,4-dihydroxytetrahydrofuran-2-yl)methyl tetradecanoate]",converted to free nicotinamide riboside to a significant degree
11,"CCOC(=O)OC[C@H]1O[C@@H](N2C=CCC(C(N)=O)=C2)[C@H](OC(=O)OCC)[C@@H]1OC(=O)OCC [NRH triethylcarbonate, ((2R,3R,4R,5R)-5-(3-carbamoylpyridin-1(4H)-yl)-3,4-bis((ethoxycarbonyl)oxy)-tetrahydrofuran-2-yl)methyl ethylcarbonate]",converted to free nicotinamide riboside to a significant degree
12,"NC(=O)c1ccc[n+]([C@@H]2O[C@H](COP(=O)([O-])O)[C@@H](O)[C@H]2O)c1 [Nic mononucleotide, nicotinamide mononucleotide, reference compound]",some amount of conversion to free nicotinamide riboside

# Test system: HaCaT cells (a human keratinocyte cell line)
# Assay: Intracellular NAD measurement in HaCaT cells (ADPR cyclase enzymatic assay, absorbance 405 nm)
# Type: cell-based
# Conditions: HaCaT in DMEM medium with Vit B3, highest tested doses, 3 hrs
# Procedure: HaCaT cells (AddexBio Technologies, San Diego, Calif., Passage 16-19) were grown in Medium DMEM/GlutMax (Life technologies, Grand Island, N.Y.) supplemented with 10% FBS (Life technologies) and Non-essential amino acids (NEAA, Life technologies) and then seeded in 12-well plates (Corning, Tewksbury, Mass.) with a density at 2×10^5 cells per well and 2 ml of culture medium in each well for overnight.
# Stock solution of dihydronicotinamide riboside (NRH, GSK3008320A, GSK, RTP, NC) was prepared in ethanol at 100 mM (25.6 mg/ml) and stored at −20° C. Cells were treated with different concentrations of NRH for 3 hrs, washed twice with PBS containing 5 mM EDTA, and then subject to Nicotinamide adenine dinucleotide (NAD) measurement. In brief, acetonitrile (ACN) lysis buffer (Ammonium Acetate (50 mM) and 90% acetonitrile) was added to each well (200 μl/well) to lyse the cells at RT for 5-10 mins by gently rotating on a culture plate shaker at a low speed. Enzyme master mix (300 μM of 5-Amino-(3,4′-bipyridin)-6(1H)-one (Inamrinone) (Sigma-Aldrich), a substrate for ADP ribosyl cyclase (ADPR cyclase)) and 30 nM ADPR Cyclase (Sigma, St. Louis, Mo.), 7.5 μM of N-(2-fluoro-4-(methylsulfonyl)phenyl)-2-methyl-6-(thiazol-5-yl)isonicotinamide (a CD38 inhibitor) in 75 mM HEPES pH7 buffer (Life Technologies)) was added to the lysed cells (400 μl of enzyme master mix/well). Enzymatic reaction was incubated at RT for ˜30 min. At the end of incubation, the supernatant (200 μl) of the reaction solution from each well was transferred to each well of a 96-well plate and absorbance was read twice in the 96-well plate at 405 nm using a plate reader (Spectra Maxplus, Molecular Devices, Sunnyvale, Calif.). A mixture of enzyme master mix and ACN extraction solution at 2:1 ratio was used as a blank reference. NAD (Sigma) was used as a positive control.
# HaCaT cells were grown as described in example 23 in the regular cell culture DMEM medium as described earlier or in the Epilife medium without nacinamide (Life Technologies). Cells were treated with different concentrations of NRH or niacinamide (NIA, DSM nutritional products) for 3 hrs, washed twice with PBS containing 5 mM EDTA, and then subject to Nicotinamide adenine dinucleotide (NAD) measurement as described in example 23. A mixture of enzyme master mix and ACN extraction solution at 2:1 ratio for a blank reference. NAD (Sigma) was used as a positive control. […] Both the CD38 inhibitor and Niacinamide increased NAD in the HaCaT cells cultured in the Vit B3 depleted culture medium, and the induction of NAD by niacinamide was dose-dependent (solid bars). However, the induction of NAD by niacinamide (highest at ˜1.5 fold) was low compared to those by NRH. Therefore, NRH is a stronger NAD inducer compared to a CD38 inhibitor or Niacinamide.
# HaCaT cells were grown in regular culture media as described in example 1 and seeded in 12-well plates with density at 2×10^5 cells per well and 1 ml of culture medium in each well. NRH stock solution was prepared in ethanol at 100 mM (25.6 mg/ml) and stored at −20° C. Stock solutions of NRH esters were made at 50 mM in DMSO (see FIG. 9B for compound info). Cells were treated with NRH esters and NRH at 150 μM for 6 and 16 hrs, washed twice with PB S containing 5 mM EDTA, and then subject to Nicotinamide adenine dinucleotide (NAD) measurement as described in example 23.
# HaCaT cells were grown in regular culture media as described above and seeded in 12-well plates with density at 2×10^5 cells per well and 1 ml of culture medium in each well. NRH stock solution was prepared in ethanol at 100 mM (25.6 mg/ml) and stored at −20° C. NRH (200 μM) was used as a positive control. Because of the possible solubility issue related to NRH monoC16, fatty acid-free bovine serum albumin (defatted BSA, Sigma) was used as a carrier for the compound. NRH monoC16 stock solution (100×) was complexed with defatted BSA ([…]) prior to the treatment, resulting in a NRH monoC16 stock solution (10 ×). […]
row,Structure (SMILES),NAD elevation
1,"Cc1cc(C(=O)Nc2ccc(S(C)(=O)=O)cc2F)cc(-c2cncs2)n1 [CD38 inhibitor, N-(2-fluoro-4-(methylsulfonyl)phenyl)-2-methyl-6-(thiazol-5-yl)isonicotinamide, reference compound]",did not lead to NAD elevation

# Same assay, conditions: HaCaT in Vit B3 depleted culture medium, 3 hrs
row,Structure (SMILES),NAD level
1,"Cc1cc(C(=O)Nc2ccc(S(C)(=O)=O)cc2F)cc(-c2cncs2)n1 [CD38 inhibitor, N-(2-fluoro-4-(methylsulfonyl)phenyl)-2-methyl-6-(thiazol-5-yl)isonicotinamide, reference compound]",increased NAD

# Same assay, conditions: HaCaT, 150 μM
row,Structure (SMILES),appearance of treated cells (potential cytotoxicity)
1,"CCCCCCCC/C=C\CCCCCCCC(=O)OC[C@H]1O[C@@H]([n+]2cccc(C(N)=O)c2)[C@H](O)[C@@H]1O [NR+ monooleate, 3-carbamoyl-1-((2R,3R,4S,5R)-3,4-dihydroxy-5-((oleoyloxy)methyl)tetrahydrofuran-2-yl)pyridin-1-ium 2,2,2-trifluoroacetate]",appeared unhealthy
